Data reported in US20170143748A1, “ANTI-TUMOR PHARMACEUTICAL APPLICATION OF PENTACYCLIC TRITERPENE SAPONIN COMPOUNDS OF SZECHUAN MELANDIUM ROOT” (priority 2014, published 2017).
Where “and” joins values, the source holds several entries; their conditions need not be identical. Identical values can stand only once. Like-named read-outs stand apart in the source and are kept apart here.

What was measured:
[1] = test system: HepG2; experiment: Inhibitory activity and IC50 to HepG2 at different time of treatment (MTT, Example 4); type: cell-based, Human; settings: for IC50 / inhibition at 5 µg/mL / inhibition at 10 µg/mL / inhibition at 20 µg/mL / inhibition at 40 µg/mL / inhibition at 80 µg/mL: Homo sapiens; for IC50: read-out: IC50 to HepG2
Method: (§1) Human resources hepatoma cell line HepG2 was provided by Cancer Hospital, Chinese Academy of Medical Sciences. […] Cells were passaged every 2 or 3 days, and all the experiments were carried out on exponentially growing cells.
Cells were harvested in good growth status and cell suspension was prepared with 2×10^4 cells/mL, added 100 μL per well of 96-well plates, and cultured for 24 h in the incubator. 100 μL liquid medium with no cell was added per well as blank group.
3 plates were used as parallel test to culture cells at different period.
Before medication, supernatant of each well was removed and fresh 1640 medium was added, 180 μL per well. […] Wells of blank and model groups were added with 0.5% DMSO, 20 μL per well. After finished adding drugs, cells were incubated for 24 and 48 h respectively. At the end of incubation, 20 μL MTT was added per well […]. The supernatant was removed carefully and 150 μL DMSO was added per well. After shaken for 10 mins, the absorbance was read at 490 nm and the inhibition rate was calculated with the formula below.
(§2) Inhibition rate=[(ODmodel−ODblank)−(ODdrugs−ODblank)]/(ODmodel−ODblank)×100%
IC50 was calculated with Bliss method.
(§3) The MTT experiment was repeated three times.

[2] = test system: HT29 human colon cancer; experiment: Anti-HT29 human colon cancer in BALB/c (nu/nu) nude mice; type: in vivo; settings: for body weight of HT29-bearing nude mice / tumor volume of HT29-bearing nude mice: mg/kg BW: total saponins 1.5, Compound 1, combination 1 & 19, PTX 20, Sc
Method: Human resources Colon cancer cell line HT29 was cultured in the same condition as the experiment 4. […] Mice were randomly assigned into 7 groups: […] The body weight and the tumor volume were measured and recorded weekly. The tumor volume was calculated according to the formula below. […] The tumors were departed and weighed.

[3] = test system: HepG2; experiment: Cell cycle detection (PI flow cytometry); type: cell-based, Human
Method: as §1
[…] Cells were blown and centrifuged at 1000 RPM for 5 mins. The supernatant was removed and 1-2 mL cold phosphate-buffered saline was added, blown and centrifuged again. The precipitate was blew and then fixed with −20° C. 70% alcohol (1-2 mL), centrifuged again. Alcohol was removed, and the precipitate was washed two times with phosphate-buffered saline, blown for suspension and filtered through 100 mesh gauze filter to flow detection tube, centrifuged at 1000 RPM for 5 mins. The supernatant was abandoned and cells were stained with PI dye (50 μg/mL), vibrated and stained at least 30 mins in darkness, detected with Flow cytometry.

[4] = test system: A875; experiment: MTT inhibition of tumor cells in vitro (Example 3); type: cell-based, Human; settings: Homo sapiens, A875, 40 μg/mL, 48 hours, read-out: Inhibition rate, A875
Method: (§4) Human resources tumor cell line […], […], HT29, MCF-7 and A875 were provided by Cancer Hospital, Chinese Academy of Medical Sciences.
(§5) Cells were passaged every 2 or 3 days, and all the experiments were carried out on exponentially growing cells.
(§6) All cells were cultured in a humidified atmosphere (5% CO2 and […]), and passaged every 2 or 3 days. Cells were harvested on exponentially growing phase, and cell suspension was prepared with 2×10^4 cells/mL, added with 100 μL per well of 96-well plates, and cultured for 24 h in incubator. 100 μL medium without cells was added per well as blank group.
(§7) Compound (1), (2), (3), (4), (7) or (8) was dissolved in DMSO respectively, and diluted with 1640 medium at a final concentration of 400 μg/mL, so as to that of the Cisplatin. Cells were divided into 9 groups, they were blank group, model group, Compound (1), (2), (3), (4), (7) and (8) groups, and Cisplatin group as the positive one, 6 wells per group.
(§8) Before drug administration, supernatant of each well was removed and fresh 1640 medium was added, 180 μL per well. Compounds and Cisplatin were added with 20 μL per well respectively at a final concentration of 40 μg/mL. Wells of blank and model groups were added with 0.5% DMSO, 20 μL per well. 48 hours later, 20 μL MTT was added per well and continued to culture for 4 hours, then the supernatant was replaced carefully and DMSO was added with 150 μL per well to end the experiment. The 96-well plates were shaken for 10 mins and read the absorbance at 490 nm. The Inhibition rate was calculated.
as §2, §3

[5] = test system: BGC823; experiment: MTT inhibition of tumor cells in vitro (Example 3); type: cell-based, Human; settings: Homo sapiens, BGC-823, 48 h, 40 μg/mL, read-out: Inhibition rate, BGC823
Method: as §4, §5, §6, §7, §8, §2, §3

[6] = test system: MCF-7; experiment: MTT inhibition of tumor cells in vitro (Example 3); type: cell-based, Human; settings: Homo sapiens, MCF7, 40 μg/mL, 48 hours, read-out: Inhibition rate, MCF-7
Method: as §4, §5, §6, §7, §8, §2, §3

[7] = test system: HT29; experiment: MTT inhibition of tumor cells in vitro (Example 3); type: cell-based, Human; settings: Homo sapiens, HT-29, 48 h, 40 μg/mL, read-out: Inhibition rate, HT29
Method: as §4, §5, §6, §7, §8, §2, §3

[8] = test system: HepG2; experiment: MTT inhibition of tumor cells in vitro (Example 3); type: cell-based, Human; settings: Homo sapiens, HepG2, 48 h, 40 μg/mL, read-out: Inhibition rate, HepG2

## COC(=O)C1CC(O[C@H]2CC[C@]3(C)[C@H]4C=CC5[C@@H]6CC(C)(C)CC[C@]6(C(=O)OC6OC(C)C(OC(=O)/C=C/c7ccc(C)cc7)C(OC(C)=O)C6OC6CC(C)C(O)C(O)C6O)[C@H](O)C[C@@]5(C)[C@]4(C)CC[C@H]3[C@]2(C)C=O)C(OC2OC(CO)C(O)C(O)C2O)C(OC2OCC(O)C(O)C2O)C1O (some centres unmarked) [Compound (2), sinocrassuloside VII]
[1]; HepG2, 20-80 μg/mL
  highest inhibition rate: above 99%
[1]; HepG2, 24 h
  IC50: 5.25 µM
[1]; HepG2, 24 h, read-out: Inhibition Rate, HepG2, 5 μg/ml, 24 h
  inhibition at 5 µg/mL: 13.4 ± 5.76%
[1]; HepG2, 24 h, read-out: Inhibition Rate, HepG2, 10 μg/ml, 24 h
  inhibition at 10 µg/mL: > 80%
[1]; HepG2, 24 h, read-out: Inhibition Rate, HepG2, 20 μg/ml, 24 h
  inhibition at 20 µg/mL: 92.7 ± 2.43%
[1]; HepG2, 24 h, read-out: Inhibition Rate, HepG2, 40 μg/ml, 24 h
  inhibition at 40 µg/mL: 90 ± 2.41%
[1]; HepG2, 24 h, read-out: Inhibition Rate, HepG2, 80 μg/ml, 24 h
  inhibition at 80 µg/mL: 94.6 ± 2.59%
[1]; HepG2, 48 h
  IC50: 4.56 µM
[1]; HepG2, 48 h, read-out: Inhibition Rate, HepG2, 5 μg/ml, 48 h
  inhibition at 5 µg/mL: 16.6 ± 8%
[1]; HepG2, 48 h, read-out: Inhibition Rate, HepG2, 10 μg/ml, 48 h
  inhibition at 10 µg/mL: > 80%
[1]; HepG2, 48 h, read-out: Inhibition Rate, HepG2, 20 μg/ml, 48 h
  inhibition at 20 µg/mL: 99.47 ± 0.56%
[1]; HepG2, 48 h, read-out: Inhibition Rate, HepG2, 40 μg/ml, 48 h
  inhibition at 40 µg/mL: 98.4 ± 1%
[1]; HepG2, 48 h, read-out: Inhibition Rate, HepG2, 80 μg/ml, 48 h
  inhibition at 80 µg/mL: 98.89 ± 0.68%
[2]; 0 W
  body weight of HT29-bearing nude mice: 20.10 ± 1.35
[2]; 1 W
  body weight of HT29-bearing nude mice: 22.10 ± 0.90
  tumor volume of HT29-bearing nude mice: 639.16 ± 539.16
[2]; 2 W
  body weight of HT29-bearing nude mice: 22.90 ± 0.90
  tumor volume of HT29-bearing nude mice: 918.54 ± 469.16
[2]; 3 W
  body weight of HT29-bearing nude mice: 22.70 ± 1.38
  tumor volume of HT29-bearing nude mice: 859.24 ± 691.16
[2]; HT29-bearing nude mice, after 3 weeks, from average tumor mass vs model
  Inhibition rate: 54.87%
[3]; 20 μg/mL, 24 h
  cells in G0/G1: 67.26%
  cells in G2/M: 15.57%
  cells in S: 17.22%
[3]; 20 μg/mL, 48 h
  cells in G0/G1: 60.62%
  cells in G2/M: 23.27%
  cells in S: 16.11%
[3]; 20 μg/mL, 72 h
  cells in G0/G1: 59.77%
  cells in G2/M: 13.96%
  cells in S: 26.27%
[3]; 40 μg/mL, 24 h
  cells in G0/G1: 52.52%
  cells in G2/M: 29.95%
  cells in S: 17.53%
[3]; 40 μg/mL, 48 h
  cells in G0/G1: 55.08%
  cells in G2/M: 32.64%
  cells in S: 12.29%
[3]; 40 μg/mL, 72 h
  cells in G0/G1: 63.09%
  cells in G2/M: 20.44%
  cells in S: 16.48%
[3]; 80 μg/mL, 24 h
  cells in G0/G1: 55.19%
  cells in G2/M: 21.20%
  cells in S: 20.39±2.56% and 20.39%
[3]; 80 μg/mL, 48 h
  cells in G0/G1: 47.28%
  cells in G2/M: 21.77%
  cells in S: 30.95±5.84% and 30.95%
[3]; 80 μg/mL, 72 h
  cells in G0/G1: 49.28%
  cells in G2/M: 10.39%
  cells in S: 40.34±12.32% and 40.34%
[4]
  inhibition at 40 µg/mL: 77.5 ± 9.94%
[5]
  inhibition at 40 µg/mL: > 90%
[6]
  inhibition at 40 µg/mL: 91 ± 8.68%
[7]
  inhibition at 40 µg/mL: > 90%
[8]
  inhibition at 40 µg/mL: > 90%
